Data from patent publication US11780821B2, “Inhibitors of fibroblast activation protein” (Praxis Biotech LLC, priority 2017, dated 2023).
Where two headings read alike, the source gives them in different places.

Columns and labels:
Type in all cases: biochemical
[1] = biological target: T1, recombinant human DPPIV (rhDPPIV) (Homo sapiens, UniProt P27487); assay: DPPIV enzymatic activity assay; details: H-Gly-Pro-pNA substrate
T1 construct: purchased R&S system (so in the source)

[2] = biological target: T2, recombinant human PREP (rhPREP) (Homo sapiens, UniProt P48147); assay: PREP enzymatic activity assay; details: Z-Gly-Pro-AMC substrate
T2 sequence (P48147 1-710): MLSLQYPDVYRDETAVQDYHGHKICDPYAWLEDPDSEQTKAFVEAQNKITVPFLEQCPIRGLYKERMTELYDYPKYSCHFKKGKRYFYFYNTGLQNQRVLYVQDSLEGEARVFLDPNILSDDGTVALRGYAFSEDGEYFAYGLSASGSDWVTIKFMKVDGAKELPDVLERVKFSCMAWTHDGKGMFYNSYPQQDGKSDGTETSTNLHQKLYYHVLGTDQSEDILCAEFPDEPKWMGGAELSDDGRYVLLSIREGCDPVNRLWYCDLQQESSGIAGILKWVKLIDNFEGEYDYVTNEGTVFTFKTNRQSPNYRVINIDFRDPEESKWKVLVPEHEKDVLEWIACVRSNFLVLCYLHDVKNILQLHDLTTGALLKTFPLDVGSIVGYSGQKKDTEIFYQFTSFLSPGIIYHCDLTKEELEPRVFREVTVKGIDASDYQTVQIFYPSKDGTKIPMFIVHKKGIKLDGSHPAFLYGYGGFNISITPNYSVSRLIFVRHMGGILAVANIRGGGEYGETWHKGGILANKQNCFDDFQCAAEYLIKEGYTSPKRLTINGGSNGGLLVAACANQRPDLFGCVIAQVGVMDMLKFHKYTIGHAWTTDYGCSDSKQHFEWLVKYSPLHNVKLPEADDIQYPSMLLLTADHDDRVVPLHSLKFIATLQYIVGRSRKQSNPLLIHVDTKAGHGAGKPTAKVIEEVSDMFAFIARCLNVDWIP
Procedure: 7-Amino-4-Methylcoumarin (AMC) release was detected by measuring fluorescence at Ex/Em 380/460 nm using a Multifunction Microplate Reader (Synergy 4, Biotek). All measurements were carried out in triplicate.

mouse plasma FAPα = biological target: T3, mouse plasma FAPα (Mus musculus, UniProt P97321); assay: FAPα enzymatic activity in mouse plasma; details: C57BL/6 mouse plasma
T3 construct: from tissue; host or cells: mouse plasma (C57BL/6, EDTA)
T3 sequence (P97321 24-761 limits assumed): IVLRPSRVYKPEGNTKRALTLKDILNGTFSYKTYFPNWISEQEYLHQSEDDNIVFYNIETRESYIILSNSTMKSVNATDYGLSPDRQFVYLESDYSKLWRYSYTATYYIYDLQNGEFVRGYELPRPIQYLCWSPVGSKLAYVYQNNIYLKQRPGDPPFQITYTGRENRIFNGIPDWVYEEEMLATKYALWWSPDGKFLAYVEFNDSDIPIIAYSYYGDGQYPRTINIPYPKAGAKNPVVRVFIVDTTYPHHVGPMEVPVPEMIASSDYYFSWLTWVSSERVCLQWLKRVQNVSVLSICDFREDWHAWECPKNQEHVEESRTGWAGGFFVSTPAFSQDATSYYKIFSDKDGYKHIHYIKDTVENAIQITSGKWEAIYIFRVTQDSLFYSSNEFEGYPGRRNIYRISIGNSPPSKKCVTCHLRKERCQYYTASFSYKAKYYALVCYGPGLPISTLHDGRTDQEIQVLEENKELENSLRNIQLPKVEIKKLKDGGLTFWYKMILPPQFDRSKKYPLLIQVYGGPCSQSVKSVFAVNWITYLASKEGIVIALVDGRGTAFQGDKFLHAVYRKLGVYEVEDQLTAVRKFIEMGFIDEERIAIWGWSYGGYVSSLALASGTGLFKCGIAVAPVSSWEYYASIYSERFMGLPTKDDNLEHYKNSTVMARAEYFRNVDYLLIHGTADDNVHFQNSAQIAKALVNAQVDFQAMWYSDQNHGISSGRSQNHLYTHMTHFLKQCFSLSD
Procedure: The blood sample was immediately centrifuged at approximately 9000 g at 4° C. for 5 minutes. Plasma was separated and stored at −80° C. in aliquots of 300 μL. […] The assay was performed for 1 hour at 37° C. protected from light. 7-Amino-4-Methylcoumarin (AMC) release was detected measuring fluorescence at an excitation wavelength of 380 nm and an emission wavelength of 460 nm using a Multifunction Microplate Reader (Synergy 4, Biotek). All measurements were carried out at least as a single point.

mouse plasma DPPIV = biological target: T4, mouse plasma DPPIV (Mus musculus, UniProt P28843); assay: DPPIV enzymatic activity in mouse plasma; details: C57BL/6 mouse plasma; H-Gly-Pro-AMC substrate
T4 construct: from tissue; host or cells: mouse plasma (C57BL/6, EDTA)
Procedure: Approximately 500 μL of whole blood from one C57BL/6 mouse was harvested into BD Microtainer® tubes (K2) EDTA (#365974, Becton Dickinson and Co.) via terminal cardiac puncture. The blood sample was immediately centrifuged at approximately 9000 g at 4° C. for 5 minutes. Plasma was separated and stored at −80° C. in aliquots of 300 μL. To assay baseline DPPIV enzymatic exopeptidase activity, 5 μL of thawed, mouse plasma was diluted (1:5) in buffer (100 mM Tris-HCl, 400 mM NaCl, 50 mM salicylic acid, 1 mM EDTA, pH 7.5) and mixed with 35 µL of the same buffer before being pre-incubated with different concentrations of 10 μL of test compounds or DMSO vehicle for 15 minutes at 37° C. in 96-well black plates (Nunc, #237108). After pre-incubation, 50 μL of 200 μM dipeptide substrate H-Gly-Pro-AMC (Bachem, #L-1225) was added to the mixture. The assay was performed for 1 hour at 37° C. 7-Amino-4-Methylcoumarin (AMC) release was detected measuring fluorescence at an excitation wavelength of 360 nm and an emission wavelength of 460 nm using a Multifunction Microplate Reader (Synergy 4, Biotek). All measurements were carried out at least in duplicate.

[3] = PRXS-AMC substrate, read-out: mouse plasma FAPα (PRXS-AMC) (exo IC50)
[4] = Z-Gly-Pro-AMC substrate, read-out: mouse plasma FAPα (Z-Gly-Pro-AMC) (exo IC50)

T1 sequence (P27487 whole entry): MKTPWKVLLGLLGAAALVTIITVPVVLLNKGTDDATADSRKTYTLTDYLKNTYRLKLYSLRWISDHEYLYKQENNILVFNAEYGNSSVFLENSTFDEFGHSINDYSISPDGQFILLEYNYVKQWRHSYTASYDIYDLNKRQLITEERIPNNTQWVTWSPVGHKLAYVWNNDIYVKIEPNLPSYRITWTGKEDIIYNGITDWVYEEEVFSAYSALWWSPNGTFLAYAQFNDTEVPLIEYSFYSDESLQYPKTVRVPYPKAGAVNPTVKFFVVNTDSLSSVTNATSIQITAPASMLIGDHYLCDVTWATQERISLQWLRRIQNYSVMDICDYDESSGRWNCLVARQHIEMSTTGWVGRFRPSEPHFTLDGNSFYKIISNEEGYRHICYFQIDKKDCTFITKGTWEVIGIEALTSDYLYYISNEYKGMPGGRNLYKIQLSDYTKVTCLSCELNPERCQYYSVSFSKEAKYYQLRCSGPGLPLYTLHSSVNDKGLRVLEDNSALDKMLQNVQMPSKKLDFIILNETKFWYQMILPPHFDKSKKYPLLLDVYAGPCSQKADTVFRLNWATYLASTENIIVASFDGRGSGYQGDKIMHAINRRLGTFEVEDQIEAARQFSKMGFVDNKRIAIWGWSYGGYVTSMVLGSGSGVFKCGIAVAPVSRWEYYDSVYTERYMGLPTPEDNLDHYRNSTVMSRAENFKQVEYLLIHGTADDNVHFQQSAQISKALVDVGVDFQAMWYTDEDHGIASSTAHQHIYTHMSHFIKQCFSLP
T4 sequence (P28843 37-760 limits assumed): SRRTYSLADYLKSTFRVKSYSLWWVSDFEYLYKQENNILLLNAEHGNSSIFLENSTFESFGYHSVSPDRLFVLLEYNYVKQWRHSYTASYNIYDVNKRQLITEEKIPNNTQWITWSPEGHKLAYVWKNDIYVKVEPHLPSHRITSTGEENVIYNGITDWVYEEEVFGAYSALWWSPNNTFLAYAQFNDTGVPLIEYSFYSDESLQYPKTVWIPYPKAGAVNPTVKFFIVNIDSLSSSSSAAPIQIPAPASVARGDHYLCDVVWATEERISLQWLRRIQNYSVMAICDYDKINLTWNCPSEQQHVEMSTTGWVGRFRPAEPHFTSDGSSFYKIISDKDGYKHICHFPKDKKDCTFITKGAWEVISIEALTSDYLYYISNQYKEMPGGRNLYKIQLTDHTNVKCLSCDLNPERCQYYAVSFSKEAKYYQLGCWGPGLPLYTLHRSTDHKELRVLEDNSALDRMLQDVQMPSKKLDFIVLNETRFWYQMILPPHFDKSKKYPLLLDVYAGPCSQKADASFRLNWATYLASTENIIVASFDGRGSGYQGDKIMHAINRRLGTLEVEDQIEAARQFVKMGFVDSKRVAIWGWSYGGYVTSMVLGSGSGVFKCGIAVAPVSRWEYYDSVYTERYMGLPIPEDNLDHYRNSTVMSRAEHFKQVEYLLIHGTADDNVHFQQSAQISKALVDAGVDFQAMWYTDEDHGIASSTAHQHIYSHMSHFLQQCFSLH

SMILES: N#C[C@@H]1CC(F)(F)CN1C(=O)CNC(=O)c1c[nH]c(=O)c(-c2ccccc2)c1 [Compound 14, (S)—N-(2-(2-cyano-4,4-difluoropyrrolidin-1-yl)-2-oxoethyl)-6-oxo-5-phenyl-1,6-dihydropyridine-3-carboxamide]
- IC50 [1]: > 10 µM
- IC50 [2]: > 10 µM
- IC50 (mouse plasma FAPα; [3]): < 1000 nM
- IC50 (mouse plasma FAPα; [4]): < 1000 nM
- IC50 (mouse plasma DPPIV): 1 to 10 µM

SMILES: N#C[C@@H]1CC(F)(F)CN1C(=O)CNC(=O)c1ccncc1-c1ccc(F)cc1 [Compound 52, (S)—N-(2-(2-cyano-4,4-difluoropyrrolidin-1-yl)-2-oxoethyl)-3-(4-fluorophenyl)isonicotinamide]
- IC50 [1]: > 10 µM
- IC50 [2]: > 10 µM
- IC50 (mouse plasma FAPα; [3]): < 1000 nM
- IC50 (mouse plasma FAPα; [4]): < 1000 nM
- IC50 (mouse plasma DPPIV): > 10 µM

SMILES: N#C[C@@H]1CC(F)(F)CN1C(=O)CNC(=O)c1ccncc1-c1cc(F)cc(F)c1 [Compound 47, (S)—N-(2-(2-cyano-4,4-difluoropyrrolidin-1-yl)-2-oxoethyl)-3-(3,5-difluorophenyl)isonicotinamide]
- IC50 [1]: > 10 µM
- IC50 [2]: > 10 µM
- IC50 (mouse plasma FAPα; [3]): < 1000 nM
- IC50 (mouse plasma FAPα; [4]): < 1000 nM
- IC50 (mouse plasma DPPIV): > 10 µM

SMILES: N#C[C@@H]1CC(F)(F)CN1C(=O)CNC(=O)c1c[nH]c(=O)cc1-c1ccc(F)cc1 [Compound 109, (S)—N-(2-(2-cyano-4,4-difluoropyrrolidin-1-yl)-2-oxoethyl)-4-(4-fluorophenyl)-6-oxo-1,6-dihydropyridine-3-carboxamide]
- IC50 [1]: 1 to 10 µM
- IC50 [2]: > 10 µM
- IC50 (mouse plasma FAPα; [3]): < 1000 nM
- IC50 (mouse plasma DPPIV): 1 to 10 µM

SMILES: Cn1ncc2c(-c3cnccc3C(=O)NCC(=O)N3CC(F)(F)C[C@H]3C#N)cccc21 [Compound 87, (S)—N-(2-(2-cyano-4,4-difluoropyrrolidin-1-yl)-2-oxoethyl)-3-(1-methyl-1H-indazol-4-yl)isonicotinamide]
- IC50 [1]: > 10 µM
- IC50 [2]: > 10 µM
- IC50 (mouse plasma FAPα; [3]): < 1000 nM
- IC50 (mouse plasma FAPα; [4]): < 1000 nM
- IC50 (mouse plasma DPPIV): 1 to 10 µM

SMILES: C=C(c1ccccc1)c1cnccc1C(=O)NCC(=O)N1CC(F)(F)C[C@H]1C#N [Compound 122, (S)—N-(2-(2-cyano-4,4-difluoropyrrolidin-1-yl)-2-oxoethyl)-3-(1-phenylvinyl)isonicotinamide]
- IC50 [1]: > 10 µM
- IC50 [2]: > 10 µM
- IC50 (mouse plasma FAPα; [3]): < 1000 nM
- IC50 (mouse plasma DPPIV): > 10 µM

SMILES: N#C[C@@H]1CC(F)(F)CN1C(=O)CNC(=O)c1ccncc1-c1ccccc1 [Compound 13, (S)—N-(2-(2-cyano-4,4-difluoropyrrolidin-1-yl)-2-oxoethyl)-3-phenylisonicotinamide]
- IC50 [1]: > 10 µM
- IC50 [2]: > 10 µM
- IC50 (mouse plasma FAPα; [3]): < 1000 nM
- IC50 (mouse plasma FAPα; [4]): < 1000 nM
- IC50 (mouse plasma DPPIV): > 10 µM

SMILES: N#C[C@@H]1CC(F)(F)CN1C(=O)CNC(=O)c1ccncc1-c1cc(Cl)ccc1F [Compound 54, (S)-3-(5-chloro-2-fluorophenyl)-N-(2-(2-cyano-4,4-difluoropyrrolidin-1-yl)-2-oxoethyl)isonicotinamide]
- IC50 [1]: > 10 µM
- IC50 [2]: > 10 µM
- IC50 (mouse plasma FAPα; [3]): < 1000 nM
- IC50 (mouse plasma FAPα; [4]): < 1000 nM
- IC50 (mouse plasma DPPIV): > 10 µM

SMILES: N#C[C@@H]1CC(F)(F)CN1C(=O)CNC(=O)c1ccncc1C1=CCNCC1 [Compound 105, (S)—N-(2-(2-cyano-4,4-difluoropyrrolidin-1-yl)-2-oxoethyl)-1′,2′,3′,6′-tetrahydro-[3,4′-bipyridine]-4-carboxamide 2,2,2-trifluoroacetate]
- IC50 [1]: > 10 µM
- IC50 [2]: > 10 µM
- IC50 (mouse plasma FAPα; [3]): < 1000 nM
- IC50 (mouse plasma DPPIV): > 10 µM

SMILES: C=Cc1cnccc1C(=O)NCC(=O)N1CC(F)(F)C[C@H]1C#N [Compound 40, (S)—N-(2-(2-cyano-4,4-difluoropyrrolidin-1-yl)-2-oxoethyl)-3-vinylisonicotinamide]
- IC50 [1]: > 10 µM
- IC50 [2]: 1 to 10 µM
- IC50 (mouse plasma FAPα; [3]): < 1000 nM
- IC50 (mouse plasma FAPα; [4]): < 1000 nM
- IC50 (mouse plasma DPPIV): > 10 µM

SMILES: N#C[C@@H]1CC(F)(F)CN1C(=O)CNC(=O)c1ccncc1C1CC1 [Compound 24, (S)—N-(2-(2-cyano-4,4-difluoropyrrolidin-1-yl)-2-oxoethyl)-3-cyclopropylisonicotinamide]
- IC50 [1]: > 10 µM
- IC50 [2]: 1 to 10 µM
- IC50 (mouse plasma FAPα; [3]): < 1000 nM
- IC50 (mouse plasma FAPα; [4]): < 1000 nM
- IC50 (mouse plasma DPPIV): > 10 µM

SMILES: N#C[C@@H]1CC(F)(F)CN1C(=O)CNC(=O)c1ccncc1N1CCOCC1 [Compound 88, N-[2-[(2S)-2-cyano-4,4-difluoro-pyrrolidin-1-yl]-2-oxo-ethyl]-3-morpholino-pyridine-4-carboxamide]
- IC50 [1]: 1 to 10 µM
- IC50 [2]: > 10 µM
- IC50 (mouse plasma FAPα; [3]): < 1000 nM
- IC50 (mouse plasma FAPα; [4]): < 1000 nM
- IC50 (mouse plasma DPPIV): 1 to 10 µM

SMILES: N#C[C@@H]1CC(F)(F)CN1C(=O)CNC(=O)c1c[nH]c(=O)c2ccc(F)cc12 [Compound 26, (S)—N-(2-(2-cyano-4,4-difluoropyrrolidin-1-yl)-2-oxoethyl)-6-fluoro-1-oxo-1,2-dihydroisoquinoline-4-carboxamide]
- IC50 [1]: 1 to 10 µM
- IC50 [2]: 1 to 10 µM
- IC50 (mouse plasma FAPα; [3]): < 1000 nM
- IC50 (mouse plasma FAPα; [4]): < 1000 nM
- IC50 (mouse plasma DPPIV): < 1 µM

SMILES: N#C[C@@H]1CC(F)(F)CN1C(=O)CNC(=O)c1ccncc1Cc1ccccc1 [Compound 50, (S)-3-benzyl-N-(2-(2-cyano-4,4-difluoropyrrolidin-1-yl)-2-oxoethyl)isonicotinamide]
- IC50 [1]: > 10 µM
- IC50 [2]: 1 to 10 µM
- IC50 (mouse plasma FAPα; [3]): < 1000 nM
- IC50 (mouse plasma FAPα; [4]): < 1000 nM

SMILES: N#C[C@@H]1CC(F)(F)CN1C(=O)CNC(=O)c1c[nH]c(=O)c2ccccc12 [Example 1, (S)—N-(2-(2-cyano-4,4-difluoropyrrolidin-1-yl)-2-oxoethyl)-1-oxo-1,2-dihydroisoquinoline-4-carboxamide]
- IC50 [1]: 1 to 10 µM
- IC50 [2]: 1 to 10 µM
- IC50 (mouse plasma FAPα; [4]): < 1000 nM
- IC50 (mouse plasma DPPIV): < 1 µM
